Usually melting point stands for the temperature of the solid-liquid transition.

Each structure is given as a SMILES string.

Consider `CC(C)(C)C1=NN(c2ccc(C(=O)O)cc2)C(c2ccc(O)cc2)C1` (stereo not given), for which the melting point worked out at 259 °C.
Take `NC(=O)c1c(F)ccc(OCc2nc3cc(-c4ccncc4)ccc3s2)c1F`: the melting point was 255 to 258 °C.
Next, `CCCc1nc(CC)c(C=O)n1Cc1ccc(-c2ccccc2-c2c(O)c(=O)c2=O)cc1`: 241 to 245 °C; `Cc1cc(-c2nn(C(C)c3oc4ccccc4c(=O)c3-c3cccc(F)c3)c3ncnc(N)c23)ccn1` (stereo not given): 266 to 268 °C.
For `COc1ccc(NC(C)CC(=O)NC(=O)OC(C)(C)C)cc1` (stereo not given) the value was 70 to 71 °C; for `Brc1cnc(-c2ccc(OCc3ccccc3)cc2)nc1`, 153 to 155 °C; for `O=C(O)C1CCNC2CCCCC21` (stereo not given), > 300 °C.
`N#Cc1c(-c2ccccc2)c(-c2ccccc2)nn(CC(=O)NN)c1=O`: the melting point was in the range of 191 to 192 °C.
Next, `Oc1ccc2cc(-c3cnc(-c4cn(Cc5ccccc5)c5ccccc45)o3)ccc2c1`: 242 to 244 °C; `Nc1[nH]ncc1-c1cccc(N2CCOCC2)c1`: 166 to 168 °C.
`CC(=O)OC1CSC(Oc2ccc(-c3cccnc3)cc2)C(OC(C)=O)C1OC(C)=O` (stereo not given): the melting point came out at 150 °C.
For `CON(c1ccc([N+](=O)[O-])cc1[N+](=O)[O-])S(=O)(=O)c1ccccc1Cl` the value was 112 to 114 °C.
For `Cc1ccc2c(C(=O)O)cn(C(C)C)c2c1` the value was 185 to 186 °C; for `CC(C)(c1ccccc1)n1nnc(-c2ccccc2)n1`, 44 to 46 °C; for `COc1ccc(N2CCN(c3c(C)c(C)c4c(c3C)CC(C)O4)CC2)c(OC)c1` (stereo not given), 142 to 144 °C.
In turn, `CCCCNS(=O)(=O)CC(O)(CCCC)C1OC(C)(C)N(C(=O)OC(C)(C)C)C1CC1CCCCC1` (stereo not given) registered a melting point of 138 to 140 °C.
In turn, `COc1ccc(O)c(C2(OC)Sc3ccccc3N(C)C2=O)c1` (stereo not given) displayed a melting point of 135 to 136 °C.
`C=C1CCC2C3CCC4CC(O)C(OCC)CC4(C)C3C(=O)CC12C` (stereo not given) came in with a melting point of 103 to 108 °C.
For `COc1ccc(Br)c(C(=O)N2CCN(S(=O)(=O)c3cccc(F)c3)CC2)c1` the value was 145 °C; for `Cc1c(C)c2c(c(Cl)c1C=O)CC(C)(C)C2`, 108 °C.
Compound `CCn1nnnc1NCC(O)COc1cccc(CN2CCCCC2)c1` (stereo not given) had a melting point of 111 to 113 °C.
As to `Nc1ccc(NC(=S)NC2CCCCC2)cn1`, the melting point was in the range of 147 to 149 °C.
For `O=C1c2ccccc2C(=O)N1n1cccc1Cl` the value was 130 to 132 °C; for `O=C(O)c1ccc(OCCCOc2ccccc2)cc1O`, 161 °C; for `CC(C)CN1C(=O)CC(C)(C)CC1=O`, 48 to 52 °C.
Next, `CNc1nc(C)c(-c2cn3cc(Cl)ccc3n2)s1`: 242 to 243 °C.
For `COC(OC)c1cc(C)nc(N)n1` the value was 69 to 71 °C; for `Cc1ncc(C(=O)N2CC2C#N)s1` (stereo not given), 90 to 92 °C.
Turning to `O=C(O)Cn1c(=S)c2ccccc2n(Cc2ccc(Cl)cc2Cl)c1=O`, the melting point is 220 to 221 °C.
For the compound `C=C(c1cccc(-c2cnnn2COCC)c1F)C(O)(Cn1cncn1)c1ccc(F)cc1F` (stereo not given), the melting point is 136 to 138 °C.
In turn, `CCOC(=S)c1c(CC)nc2ccccn12` yielded a melting point of 71 to 73 °C.
The compound `C[C@H](N[C@@H]1CNC(=O)C12CC2)c1ccccc1` gave a melting point of 107 to 110 °C.
The compound `FC(F)Oc1cc(-n2nc3c(c2Cl)CCCC3)c(Cl)cc1Cl` registered a melting point of 121 to 123 °C.
`O=C1CCC2=C(CCc3cccc(Br)c32)N1` registered a melting point of 189 to 190 °C.
For `COc1ccc(N2CCN(c3ccc(OC)nc3-c3ccc(N(C)C)cc3)C(C)C2)cc1` (stereo not given) the value was 140 to 148 °C; for `CNC(=O)ON=C1SC(C)C(=O)N1N(C)C` (stereo not given), 110 to 113 °C; for `Cc1ccc(C(=O)c2ccc(F)cc2)nc1`, 127 to 128 °C.
Next, `CCCCOc1ccc(S(=O)(=O)C2(C(=O)O)CCN(CCCOc3ccccc3)CC2)cc1`: 84 °C.
Next, `CCOC(=O)c1cc(CC)sc1Nc1ccc(N)cc1N`: 152 to 155 °C; `O=c1ccc(C(c2ccc(Cl)cc2)c2ccc(Cl)cc2)c[nH]1`: 211 to 215 °C; `CCCc1c2nc(C(=O)OCC)cc(NC)c2cc2c(=O)cc(C(=O)OCC)oc12`: 235 to 237 °C.
For the compound `CCc1c(COC(C)=O)nc(-c2ccc(OC)c(OC)c2)c2cc(OC)c(OC)cc12`, the melting point fell in the range of 129 to 131 °C.
`CCC(=O)c1ccc(=O)[nH]c1C=CN(C)C` came in with a melting point of 204 to 206 °C.
Next, `C/C(=C\c1ccc(P(=O)(O)O)cc1)c1ccc2c(c1)C(C)(C)CCC2(C)C`: 208 to 209 °C; `COc1ccc(CN(C)CCCc2ccc(NC(=O)c3cccc4c(=O)c5cc(F)ccc5sc34)cc2)cc1OC`: 160 °C; `CCOc1ccccc1C=[N+]([O-])C(C)(C)C`: 58.3 °C.
For `CCOCN1C(C)=C(C(=O)O)C(c2cccc(Cl)c2Cl)C(C(=O)OC)=C1C` (single isomer, unassigned; (+)) the value was 129 to 131 °C; for `CN(C)C(=O)Nc1cccc(C(=O)c2ccccc2)c1`, 104 to 105 °C; for `CN(C)CCCN(C)C(=O)Nc1ccc(-c2nnc(CSCCOc3ccccc3)o2)cc1`, 136 to 139 °C.
Next, `C=C(CN1c2ccccc2Sc2ccc(Cl)cc21)c1ccc(C(=O)Nc2ccccc2N)cc1`: 126 to 128 °C.
In turn, `Cc1ncsc1C(O)c1cccc(O)c1` (stereo not given) registered a melting point of 181 to 184 °C.
The compound `CC(c1oc2ccccc2c(=O)c1-c1cccc(F)c1)n1nc(-c2cccc(OC(F)(F)F)c2)c2c(N)ncnc21` (stereo not given) registered a melting point of 155 to 157 °C.
The compound `COc1ccccc1N1CCN(CC2=Cc3ccccc3CC2)CC1` returned a melting point of 84 to 85 °C.
For `CC1(C)OCCC(NC(=O)c2cnccc2C(F)(F)F)O1` (stereo not given) the value was 155 to 156 °C; for `CC(C#N)CCC(=O)O` (stereo not given), 31.9 to 32.6 °C; for `COc1ccc(C2Cc3[nH]c4ccccc4c3C2)cc1` (stereo not given), 106 to 109 °C.
As to `O=C1CCC(Cc2c[nH]c3ncccc23)N1` (stereo not given), the melting point lay within 160 to 162 °C.
On to `CCC/C(=C\C=O)c1ccc2c(c1)C(CC)(CC)OC(=O)N2`, for which the melting point was 173 to 179 °C.
As to `N#Cc1cc(SC(F)(F)F)[nH]c1-c1ccc(Cl)cc1`, the melting point lay in the range of 203 to 205 °C.
In turn, `CC(C)(C)c1ccc([C@@H]2C[C@H]3C=C(c4c[nH]c(-c5ccc(F)cc5)c4-c4ccncc4)CCN3C2)cc1` displayed a melting point of 226 to 228 °C.
Next, `CS(=O)c1cc(-c2ccc(C(F)(F)F)cc2)ccc1C#N` (stereo not given): 127 to 128 °C; `COc1cc(COc2nn(Cc3ccccc3)cc2CO)ccc1OCc1nc(-c2ccccc2)oc1C`: 90 to 91 °C.
For `O=C(C(=O)N1CCC(Oc2cccc(Cl)c2)CC1)c1c[nH]c2ccccc12` the value was 145 to 147 °C; for `CCCCCc1ccc(-c2ccc(-c3nc(N)nc(N)n3)cc2)cc1`, 242 to 244 °C.
Next, `Cc1ccc(-c2nc(Cc3cc4cc(CO)ccc4o3)c(C)o2)cc1`: 156 to 160 °C.
`CC(=O)NCC1CN(c2ccc(N3CCN(C4N=NC(=O)S4)CC3)c(F)c2)C(=O)O1` (stereo not given): the melting point fell in the range of 173 to 175 °C.
Next, `Cc1ccc(C(=O)Nc2cn(C3CCCCO3)nc2C(=O)NCCO)cn1` (stereo not given): 140 °C; `CSc1ccc(-c2coc3ccc(C(=O)NN)nc23)cc1`: 240 to 241 °C.
For `Cc1ccc2c(c1)Cc1c(C(=O)C(C#N)C(=O)Nc3ccccc3)nn(-c3ccccc3)c1-2` (stereo not given) the value was 249 to 251 °C.
The compound `Cc1cc(-c2ccccc2)co1` had a melting point of 89 to 91 °C.
On to `O=C(N[C@@H]1C[C@H]1c1ccccc1)c1ccc2cnccc2n1` (relative stereo), for which the melting point is 123 to 124 °C.
For `O=C1COC(c2cccc(Cl)c2)c2cc(C3(c4ccc(Cl)cc4)OCCO3)ccc2N1` (stereo not given) the value was 205 °C.
Next, `CCOc1cnc(-c2cc(Cl)c(OC)c3ccccc23)s1`: 67 to 68 °C; `Cc1cc2c(s1)S(=O)(=O)N(C(C)(C)C)C2=O`: 80 to 81 °C; `NC(=O)c1cc(Br)c(O)c(Br)n1`: 261 to 266 °C.
For `CC(NC(=S)NC(COC(=O)C(C)(C)C)Cc1ccccc1)c1ccc([N+](=O)[O-])cc1` (stereo not given) the value was 99 to 100 °C.
Take `Fc1ccc(-c2cccc(F)n2)cc1`: the melting point amounted to 34 °C.
`Cc1c(Cc2cccc(C(F)(F)F)c2F)c2ccc(Cl)c(Cl)c2n1CCCNS(C)(=O)=O` came in with a melting point of 139 °C.
In turn, `Cc1ccc2oc(=O)c(C(=O)Oc3cc(F)ccc3F)cc2c1` returned a melting point of 155 to 159 °C.
As for `c1ccn(-c2nc(COc3ccc(CCCn4ccnc4)cc3)cs2)c1`, the melting point fell in the range of 93 to 94 °C.
Next, `CCOC(=O)c1cn(Cc2ccc(OCc3ccccc3)cc2)nc1-c1ccccc1`: 102 to 103 °C; `O=C(O)CCOc1ccc(CNC(=O)C2Cc3ccccc3N2S(=O)(=O)c2ccc(-c3cccc(C(F)(F)F)c3)cc2)cc1` (stereo not given): 72 °C.
Next, `COC(=O)C1(NC(C)=O)CCc2cc(OC)ccc2C1` (stereo not given): 153 to 154 °C; `Cc1ccc2c(n1)Nc1cc(C)c(C)cc1N(C)C2=O`: 217 to 219 °C; `CCCc1c(OCCCCCOc2ccc3nc(CCC(=O)OCC)ccc3c2CCC(=O)OCC)ccc2c1OCCC2=O`: 59 to 61 °C.
Compound `CC(C)(C)OC(=O)Nc1ccn2nc(N3CCCC3)nc2c1` came in with a melting point of 216 to 219 °C.
`CN1CCC2(CC1)CN(c1ccccc1[N+](=O)[O-])c1cc(Cl)ccc12` showed a melting point of 130 to 131 °C.
Next, `CC(C)N1Cc2cc(O)ccc2N(CCN2CC=C(c3c[nH]c4cc(F)ccc34)CC2)S1(=O)=O`: 80 to 82 °C.
Next, `Cn1nc(-c2cccs2)n(C)c1=S`: 128 to 129 °C; `C=CCOc1ccc2c(c1)C(=O)NC(C)(C)O2`: 137 to 138 °C.

(Values after a melting point compilation (Tetko et al.; mined from patent text by program, amines drawn as free bases though some values may be those of a salt).)
